In patent US7531573B2 (priority 1994, dated 2009) one finds inhibition and IC50 data, which are given here for 44 molecules.

Molecules are shown by their SMILES. Read-outs that look alike come from different tables or passages of the source.

The test system of experiment [1] is NIH 3T3 mouse fibroblast cells. The experiment is described as follows: Mitogen-induced cell proliferation. It is filed as cell-based. The settings on record: for inhibition at 10 µM: NIH3T3, read-out: Mitogen-induced cell proliferation % Inhibition; for IC50: NIH3T3, read-out: Mitogen-induced cell proliferation IC50. An excerpt:
Other cell lines, e.g., cancer cells, endothelial cells and fibroblasts, as well as many others, may be used in the cell proliferation assay. Selection of a particular cell line will depend in part on the desired application, and is well within the capabilities of an ordinarily skilled artisan.

In experiment [2] the target is Gardos channel of erythrocytes (Homo sapiens, UniProt O15554). The experiment is described as follows: cell-based. The settings on record: for inhibition at 10 µM: read-out: Gardos Channel % Inhibition.
Where [3] appears, read: erythrocytes, read-out: Gardos Channel IC50.

Gardos channel of erythrocytes, sequence (O15554 whole entry): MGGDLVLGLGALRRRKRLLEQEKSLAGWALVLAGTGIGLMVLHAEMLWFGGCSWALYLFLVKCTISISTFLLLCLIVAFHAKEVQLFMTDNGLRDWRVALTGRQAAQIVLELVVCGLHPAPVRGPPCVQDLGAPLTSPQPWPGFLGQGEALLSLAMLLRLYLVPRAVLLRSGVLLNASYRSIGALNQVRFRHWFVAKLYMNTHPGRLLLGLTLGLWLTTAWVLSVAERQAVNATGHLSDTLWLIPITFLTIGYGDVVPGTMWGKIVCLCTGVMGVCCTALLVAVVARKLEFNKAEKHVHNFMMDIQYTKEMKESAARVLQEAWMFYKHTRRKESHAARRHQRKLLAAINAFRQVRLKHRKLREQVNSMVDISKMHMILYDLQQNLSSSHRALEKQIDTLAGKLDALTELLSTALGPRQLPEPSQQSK

Turning to `O=C(O)CC(c1ccccc1)(c1ccccc1)c1ccccc1` [Compound 9], the inhibition at 10 µM in experiment [1] is 32.7%. Besides, in experiment [2], the IC50 was determined as 21800 nM and the inhibition at 10 µM amounted to 77.2%.

Regarding `OC(c1ccccc1)(c1ccccc1)c1ccc(-c2ccccc2)cc1` [Compound 21], in experiment [1], the inhibition at 10 µM is 99% and the IC50 was 2800 nM. Moreover, in experiment [2], the IC50 came to 725 nM and the inhibition at 10 µM came to 97.3%.

As for `O=C(O)CC(c1ccc(Cl)cc1)(c1ccc(Cl)cc1)c1ccc(Cl)cc1` [Compound 39], the results for the inhibition at 10 µM in experiment [1] and in experiment [2] were 99% and 97%, respectively. Besides, the IC50 is 3300 nM in experiment [1] and 1680 nM in experiment [2] (setting [3]).

Turning to `c1ccc(C(c2ccccc2)c2ccncc2)cc1` [Compound 4], the inhibition at 10 µM in experiment [1] is 37.7%; in experiment [2], 91%. This molecule also showed an IC50 in experiment [2] of 2860 nM.

As for `N#CCC(c1ccccc1)(c1ccccc1)c1ccccc1` [Compound 19], the inhibition at 10 µM in experiment [1] worked out at 80%; in experiment [2], 97%. The IC50 stood at 5800 nM in experiment [1] and 1130 nM in experiment [2] (setting [3]).

For `COC(=O)c1ccccc1C(c1ccccc1)c1ccccc1` [Compound 45], the inhibition at 10 µM in experiment [1] was found to be 99%; in experiment [2] it was 98%. For the same molecule, the results for the IC50 in experiment [1] and in experiment [2] (setting [3]) were 800 nM and 320 nM, respectively.

In the case of `O=C1CC[C@@H](COC(c2ccccc2)(c2ccccc2)c2ccccc2)N1` [Compound 23], the results for the inhibition at 10 µM in experiment [1] and in experiment [2] were 77% and 97.9%, respectively. Moreover, the IC50 came out at 3800 nM in experiment [1] and 216 nM in experiment [2] (setting [3]).

As to `CC(=O)C(c1ccccc1)(c1ccccc1)c1ccccc1` [Compound 37], the results for the inhibition at 10 µM in experiment [1] and in experiment [2] were 31% and 100%, respectively. In addition, the IC50 in experiment [2] (setting [3]) is 57 nM.

`NC(=O)CC(c1ccccc1)(c1ccccc1)c1ccccc1` [Compound 18]: the results for the inhibition at 10 µM in experiment [1] and in experiment [2] were 76.1% and 98%, respectively. Moreover, the figures for the IC50 in experiment [1] and in experiment [2] (setting [3]) were 10000 nM and 431 nM, respectively.

`O=C(CBr)C(c1ccccc1)(c1ccccc1)c1ccccc1` [Compound 69]: the inhibition at 10 µM in experiment [1] came out at 99%; in experiment [2] it was 100%. The IC50 in experiment [2] (setting [3]) turned out to be 25 nM.

As to `OCCCC[Si](c1ccccc1)(c1ccccc1)c1ccccc1` [Compound 73], in experiment [1], the inhibition at 10 µM amounted to 99% and the IC50 worked out at 2500 nM. For the same molecule, in experiment [2], the IC50 stood at 371 nM and the inhibition at 10 µM amounted to 98.9%.

For the molecule `CCC(c1ccccc1)(c1ccccc1)c1ccc(O)cc1` [Compound 67], the inhibition at 10 µM is 98% in experiment [1] and 96.1% in experiment [2]. Also, the figures for the IC50 in experiment [1] and in experiment [2] (setting [3]) were 1400 nM and 430 nM, respectively.

As for `COc1ccc(C(O)(c2ccccc2)c2ccccc2Cl)cc1` (stereo not drawn) [Compound 81], the inhibition at 10 µM worked out at 53% in experiment [1] and 100% in experiment [2]. Also, the IC50 in experiment [2] (setting [3]) came out at 187 nM.

As to `Cc1ccc(C(c2cc(Cl)ccc2N)c2ccccc2Cl)cc1` (stereo not drawn) [Compound 86], the inhibition at 10 µM was 99% in experiment [1] and 93.9% in experiment [2]. Besides, the figures for the IC50 in experiment [1] and in experiment [2] (setting [3]) were 2400 nM and 237 to 455 nM, respectively.

Regarding `COC(=O)c1ccc(C(O)(c2ccccc2)c2ccccc2)cc1` [Compound 62], the inhibition at 10 µM in experiment [1] came to 31%; in experiment [2], 98%. Also, in experiment [2], the IC50 came to 98 nM.

For `OCCC(c1ccccc1)(c1ccccc1)c1ccccc1` [Compound 22], the results for the inhibition at 10 µM in experiment [1] and in experiment [2] were 85% and 82%, respectively. For the same molecule, the figures for the IC50 in experiment [1] and in experiment [2] were 6800 nM and 302 nM, respectively.

Turning to `O=CCC(c1ccc(Cl)cc1)(c1ccc(Cl)cc1)c1ccc(Cl)cc1` [Compound 65], in experiment [1], the inhibition at 10 µM was 99% and the IC50 turned out to be 1600 nM. Further, in experiment [2], the IC50 turned out to be 435 nM and the inhibition at 10 µM was 98%.

`OC(c1ccccc1)(c1ccccc1)c1ccc(Cl)cc1` [Compound 43]: in experiment [1], the inhibition at 10 µM stood at 99% and the IC50 stood at 800 nM. For the same molecule, in experiment [2], the IC50 came to 61 nM and the inhibition at 10 µM was 99%.

As for `CCOC(=O)C(C(=O)OCC)C(c1ccccc1)(c1ccccc1)c1ccccc1` [Compound 31], the inhibition at 10 µM in experiment [1] turned out to be 89%; in experiment [2], 99%. Also, the IC50 in experiment [1] is 2600 nM; in experiment [2] it was 445 nM.

Take `O=C(O)CCC(c1ccccc1)(c1ccccc1)c1ccccc1` [Compound 74]: the inhibition at 10 µM in experiment [1] stood at 70%; in experiment [2], 97.5%. In addition, the IC50 in experiment [2] (setting [3]) was 1400 nM.

As for `N#CC(c1ccccc1)(c1ccccc1)c1ccc([N+](=O)[O-])cc1Cl` [Compound 49], the inhibition at 10 µM amounted to 94% in experiment [1] and 88% in experiment [2]. Also, the values for the IC50 in experiment [1] and in experiment [2] (setting [3]) were 300 nM and 336 nM, respectively.

Turning to `O=CCC(c1ccccc1)(c1ccccc1)c1ccccc1` [Compound 38], the inhibition at 10 µM is 99% in experiment [1] and 92% in experiment [2]. For the same molecule, the IC50 in experiment [1] was 800 to 2300 nM; in experiment [2] (setting [3]), 220 nM.

As for `CCOC(=O)C(C(=O)OCC)C(c1ccccc1)(c1ccccc1)c1ccccc1Cl` [Compound 33], the figures for the inhibition at 10 µM in experiment [1] and in experiment [2] were 45% and 100%, respectively. In experiment [2], this molecule registered an IC50 of 125 nM.

`COc1ccc(C(O)(c2ccccc2)c2ccc(OC)cc2)cc1` [Compound 58]: the inhibition at 10 µM in experiment [1] came to 99%; in experiment [2], 99.6%. In addition, in experiment [2], the IC50 stood at 247 nM.

`CCOC(=O)C(C(=O)OCC)C(c1ccccc1)(c1ccccc1)c1ccccc1F` [Compound 55]: the figures for the inhibition at 10 µM in experiment [1] and in experiment [2] were 5% and 98%, respectively. In addition, the IC50 in experiment [2] (setting [3]) stood at 58 nM.

For the molecule `CC(=O)CC(c1ccccc1)(c1ccccc1)c1ccccc1Cl` [Compound 82, 4-(2-chlorophenyl)-4,4-diphenyl-2-butanone], the results for the inhibition at 10 µM in experiment [1] and in experiment [2] were 98% and 99.5%, respectively. For the same molecule, the results for the IC50 in experiment [1] and in experiment [2] (setting [3]) were 5000 nM and 27 nM, respectively.

For `N#CCc1ccc([Si](c2ccccc2)(c2ccccc2)c2ccccc2)cc1` [Compound 71], in experiment [1], the inhibition at 10 µM is 97% and the IC50 is 1100 nM. In addition, in experiment [2], the inhibition at 10 µM is 0.4%.

In the case of `NC(=O)C(c1ccccc1)(c1ccccc1)C1CCCCC1` [Compound 90, Cyclohexyl-diphenylacetamide], the inhibition at 10 µM in experiment [1] turned out to be 86%; in experiment [2], 98.3%. Besides, the IC50 was 3000 nM in experiment [1] and 72 nM in experiment [2] (setting [3]).

Turning to `N#CCCC(c1ccccc1)(c1ccccc1)c1ccccc1` [Compound 64, 4,4,4-triphenylbutronitrile], the values for the inhibition at 10 µM in experiment [1] and in experiment [2] were 63% and 100%, respectively. For the same molecule, the IC50 in experiment [1] is 5800 nM; in experiment [2] (setting [3]), 88 nM.

Turning to `OC(c1ccccc1)(c1ccccc1)c1ccccc1` [Compound 1], in experiment [2], the IC50 is 755 nM and the inhibition at 10 µM was 97%.

As for `NCCC(c1ccccc1)(c1ccccc1)c1ccccc1` [Compound 29], the figures for the inhibition at 10 µM in experiment [1] and in experiment [2] were 99% and 100%, respectively. Further, the results for the IC50 in experiment [1] and in experiment [2] (setting [3]) were 3100 nM and 649 nM, respectively.

As to `Oc1ccc(C(c2ccccc2)c2ccccc2Cl)cc1` (stereo not drawn) [Compound 85], the inhibition at 10 µM came to 91% in experiment [1] and 98% in experiment [2]. Further, the values for the IC50 in experiment [1] and in experiment [2] (setting [3]) were 7000 nM and 739 nM, respectively.

On to `c1ccc(N(c2ccccc2)c2ccccc2)cc1` [Compound 8], for which the inhibition at 10 µM in experiment [1] is 28.3%; in experiment [2] it was 95.6%. The IC50 in experiment [2] (setting [3]) is 2850 nM.

As for `c1ccc(C(c2ccccc2)c2ccccc2)cc1` [Compound 3], in experiment [1], the inhibition at 10 µM was found to be 53%. Besides, in experiment [2], the IC50 was 1200 nM and the inhibition at 10 µM worked out at 86.6%.

In the case of `OC(C#Cc1ccccc1)(c1ccccc1)c1ccccc1` [Compound 48], the inhibition at 10 µM in experiment [1] came to 98%; in experiment [2] it was 100%. Also, the IC50 was found to be 400 nM in experiment [1] and 1290 nM in experiment [2].

`Nc1ccc(C(O)(c2ccc(N)cc2)c2ccc(N)cc2)cc1` [Compound 54]: the inhibition at 10 µM stood at 99% in experiment [1] and 17.4% in experiment [2]. Further, in experiment [1], the IC50 turned out to be 200 nM.

For the molecule `Cc1ccc(C(O)(c2ccc(C)cc2)c2ccc(C)cc2)cc1` [Compound 59], in experiment [1], the inhibition at 10 µM amounted to 98% and the IC50 amounted to 3000 nM. Also, in experiment [2], the IC50 turned out to be 489 nM and the inhibition at 10 µM stood at 100%.

Turning to `NOC(c1ccccc1)(c1ccccc1)c1ccccc1` [Compound 34], the results for the inhibition at 10 µM in experiment [1] and in experiment [2] were 68% and 96.3%, respectively. The IC50 in experiment [2] (setting [3]) came out at 939 nM.

With `BrC(c1ccccc1)(c1ccccc1)c1ccccc1` [Compound 12], the inhibition at 10 µM in experiment [1] turned out to be 72.8%; in experiment [2] it was 99%. The IC50 in experiment [1] was determined as 1700 nM; in experiment [2], 252 nM.

With `O=C1CC[C@@H](COC(c2ccccc2)(c2ccccc2)c2ccccc2)O1` [Compound 24], the inhibition at 10 µM turned out to be 29% in experiment [1] and 97.9% in experiment [2]. In addition, the IC50 in experiment [2] (setting [3]) stood at 135 nM.

Take `CCOC(=O)C(c1ccccc1)(c1ccccc1)c1ccccc1` [Compound 47]: the figures for the inhibition at 10 µM in experiment [1] and in experiment [2] were 99% and 100%, respectively. In addition, the IC50 in experiment [1] came to 800 nM; in experiment [2] (setting [3]), 193 nM.

In the case of `c1ccc([Si](c2ccccc2)(c2ccccc2)c2cccs2)cc1` [Compound 76], in experiment [1], the inhibition at 10 µM came out at 84%.

Molecule `OCCC[CH2][Ge]([c]1ccccc1)([c]1ccccc1)[c]1ccccc1` [Compound 72] displayed an IC50 in experiment [2] of 1080 nM.

Consider `CON(C)C(=O)CC(c1ccc(Cl)cc1)(c1ccc(Cl)cc1)c1ccc(Cl)cc1` [Compound 40], for which, in experiment [1], the inhibition at 10 µM stood at 99% and the IC50 lay within 1000 to 1200 nM.
